The nature of data set [1]: Population pharmacokinetics of cefotaxime and desacetylcefotaxime in critically ill children (P-168). The format is in vivo, human (children). As to the method:
Patients and methods: All children aged less than 18 years, weighing more than 2.5 kg, and receiving intermittent CTX infusions were included. CTX and D-CTX were quantified by high performance liquid chromatography. Pharmacokinetics were described using the non-linear mixed effect modelling software MONOLIX. Monte Carlo simulations were used to optimize dosing regimen, in order to maintain serum concentration above the target concentration (defined at 2 mg L^−1) 100% of the time during the dosing interval.

For data set [2], the system named is Extended spectrum betalactamase producing Enterobacteriaceae. Put plainly: Antibiotic resistance of ESBL producing Enterobacteriaceae (P-147). It is filed as cell-based. The settings on record: isolates 2015 and 2016.
The next data set relates to Enterococcus faecalis. Put plainly: Resistance in nosocomial urinary tract infection: Enterococcus faecalis (P-219). Particulars: January 2010 - June 2014.
A further data set deals with Pseudomonas. The settings on record: January 2010 - June 2014.
Another data set relates to Acinetobacter baumannii. The format is cell-based. The settings on record: blood culture isolates 2012–2016. As to the method:
(§1) Patients and methods: From January 2012 to December 2016, a total of 2,182 non repetitive strains were isolated from blood cultures. Incubation of blood culture vials and the detection of bacterial growth were performed by the BACTEC system. All Isolated organisms were identified on the basis of standard microbiological techniques. Antibiotic susceptibility testing was carried out by the agar disk diffusion method, and susceptibility results were interpreted using clinical breakpoints according to CA-SFM 2013 and 2015 guidelines. Data were analyzed using the SIR-system. Minimum inhibitory concentrations of colistin, imipenem and vancomycin were determined using the Etest® method (bioMérieux).

Data set [3] can be described thus: Beta-lactam plasma concentrations in children with severe sepsis or septic shock (HPLC). Particulars: current standard dosing.
For a further data set, the system named is tramadol-overdosed rats. Put plainly: Antidotes for tramadol overdose: seizures, plethysmography, sedation, EEG. The settings on record: for tramadol-induced respiratory depression / ventilation: whole-body plethysmography.
Data set [4] deals with carbapenemase-producing Enterobacteriaceae. Description: Antibiotic susceptibility of Enterobacteriaceae with decreased susceptibility to carbapenems. The format is cell-based.
A further data set has as its system Escherichia-coli. Description: Resistance in nosocomial urinary tract infection: Escherichia-coli (P-219). Particulars: January 2010 - June 2014.
The subject of data set [5] is Staphylococcus aureus. It is filed as cell-based. Particulars: blood culture isolates 2012–2016. As to the method: as §1
A short description of data set [6]: Norepinephrine in pediatric septic shock, mortality (P-169). The format is in vivo, human (children).
Data set [7] has as its system cardiogenic shock patients. Description: OPTIMA CC double-blind randomized trial, epinephrine vs norepinephrine in cardiogenic shock after myocardial infarction. It is filed as in vivo. The text has this:
Patients and methods: Multicenter, double-blind, randomized trial in 8 french ICU. Cardiogenic shock patients due to myocardial infarction treated by PCI were randomized to receive epinephrine or norepinephrine to maintain MAP at 70 mmHg. Dobutamine was introduced at the physician discretion according to a combination of parameters—echocardiographic parameters, cardiac index, lactate clearance, SVO2 and Swan-Ganz derived parameters.

Data set [8] is described as follows: Hemodynamic and metabolic effects of molar sodium lactate infusion in critically ill patients (P-135). It is filed as in vivo, human. The protocol: Patients and methods: This was a retrospective study performed in a large University Hospital. All patients receiving the molecule were included in the analysis. Indication for sodium lactate, dose, and modality of administration were collected. We also collected clinical and biological variables before sodium lactate infusion, after 6 h (H6), and after 24 h (H24). An analysis of the evolution of these variables at H6 and H24 was performed.

Data set [9] relates to E.coli lipopolysaccharide-challenged rats. Description: Sodium lactate vs 0.9% NaCl in rat endotoxin shock: fluid balance and capillary leak. The format is in vivo. The protocol: Patients and methods: The sixteen sedated, mechanically ventilated rats were challenged with intravenous infusion of E.coli lipopolysaccharide (10 mg/kg). Two groups of eight animals were randomised to receive a continous perfusion (5 mL/kg/h) of sodium lactate 11.2% (treatment group) or 0.9% NaCl (control group). In order to inject the same caloric load in the two groups, a 4.35 mL/kg/h of either water of 10% dextrose solution were perfused. Mean arterial pressure, heart rate, urine ouput were measured over a 210 min period. An echocardiography was then performed and Evans Blue (1%, 30 mg/kg) was intravenously injected 30 min before sacrifice. Organs were withdrawn and organs wet dry ratio and Evans blue dye extravasation were measured.

Another data set relates to Acinetobacter Baumanii. Put plainly: Resistance of nosocomial infection isolates: Acinetobacter Baumanii (P-222). The format is cell-based. The settings on record: n = 39 isolates, 2016. The text has this: Patients and methods: This was a retrospective study conducted within a 22-bed medical ICU of a Tunisian teaching hospital (301 beds) carried from January 1st to December 31, 2016. We recorded demographic patients’ characteristics which ICU’s stay was complicated with at least one NI. Then we described pathogens and microbiological specificities of NI.

Data set [10] deals with Staphylococcus aureus. Description: Resistance in nosocomial urinary tract infection: Staphylococcus aureus (P-219). The settings on record: January 2010 - June 2014.
Assay in data set [11]: not given
This is another data set of the same source.

For data set [12], the system named is patients after out-of-hospital cardiac arrest.
Data set [13] deals with diaphragm contraction and workload. Put plainly: Diaphragmatic electromyography after diazepam / buprenorphine. It is filed as in vivo, Sprague–Dawley rat. The settings on record: 30 mg kg BUP intraperitoneally, 20 mg kg DZP subcutaneously.
Protocol: Patients and methods: 11C-BUP was administered intravenously, 30 mg kg unlabeled BUP intraperitoneally and 20 mg kg DZP subcutaneously.
Data set [14] relates to Farnesoid X receptor (FXR). Description: LPS sepsis in CKD mice treated with sevelamer (P-138). The format is in vivo, mice (C57BL6 J). The protocol:
Patients and methods: Sepsis was provoked by the injection of 0.5 mg kg of LPS 6 weeks after the creation of CKD. The CKD was created by unilateral nephrectomy associated with contralateral thermocauterisation. The mice (C57BL6 J) were randomly assigned to one of the following groups—sham placebo, CKD placebo, sham LPS or CKD LPS. A fifth group of CKD LPS mice received a treatment with sevelamer (a bile acid sequestrant) during 6 weeks. Survival of the animals, serum biochemistry and molecular biology in the kidney were performed after sacrifice.

The mark [15] stands for this setting: median (range), 49 children, one compartment model.

By mortality is commonly meant the percentage killed.

With `CO/N=C(\C(=O)N[C@@H]1C(=O)N2C(C(=O)O)=C(COC(C)=O)CS[C@H]12)c1csc(N)n1` [CTX, cefotaxime], in data set [1] (intermittent infusions, target 2 mg L^−1), the “target attainment of calculated residual concentrations” value is on record as “no patient succeeds to attain the target”. Further, in [1] (setting [15]), the volume of distribution is listed as 3.3 (0.85–20) L. Besides, the CTX clearance in data set [1] (median (range), 49 children, one compartment model, MONOLIX, HPLC) was 0.97 (0.3–7.1) L h^−1.

Consider `CO/N=C(\C(=O)N[C@@H]1C(=O)N2C(C(=O)O)=C(CO)CS[C@H]12)c1csc(N)n1` [D-CTX, desacetylcefotaxime], for which the D-CTX clearance in data set [1] (setting [15]) is listed as 3.2 (0.6–16.3) L h^−1.

On to `CCn1cc(C(=O)O)c(=O)c2cc(F)c(N3CCNCC3)cc21` [Norfloxacin], for which the rate of resistance in data set [2] is reported as 89.13%.

Turning to `CC1(C)S[C@@H]2[C@H](NC(=O)[C@H](N)c3ccccc3)C(=O)N2[C@H]1C(=O)O` [ampicillin], in the data set on Enterococcus faecalis, the resistance result is “no resistance”.

Regarding `CC(C)(O/N=C(\C(=O)N[C@@H]1C(=O)N2C(C(=O)[O-])=C(C[n+]3ccccc3)CS[C@H]12)c1csc(N)n1)C(=O)O` [ceftazidime], the resistant with Pseudomonas amounted to 61%. For the same compound, the resistance rate result in the data set with Acinetobacter baumannii is listed as “Eighty per cent”; with Klebsiella pneumoniae, 70%; in the data set with Pseudomonas aeruginosa it was 39%. For the same compound, the “patients with insufficient plasma concentration” value in [3] came out at 0%.

For the compound `CN1C(=O)CN=C(c2ccccc2)c2cc(Cl)ccc21` [diazepam], the sedation depth entry in the data set on tramadol-overdosed rats (rat, in vivo) is “significantly deepened rat sedation”. Further, in the data set on tramadol-overdosed rats, the “tramadol-induced respiratory depression / ventilation” value is on record as “without improving ventilation”.

Take `C[C@@H](O)[C@H]1C(=O)N2C(C(=O)O)=C(S[C@@H]3CN[C@H](C(=O)Nc4cccc(C(=O)O)c4)C3)[C@H](C)[C@H]12` [ertapenem]: the “strains with MIC > 1 mg l” value in data set [4] (39 selected bacteria) is 95%. Moreover, the resistance entry with Escherichia-coli is reported as “without resistance”.

On to `CC(=O)NC[C@H]1CN(c2ccc(N3CCOCC3)c(F)c2)C(=O)O1` [linezolid], for which the resistance rate in the data set with Staphylococcus aureus [5] was found to be 1%.

Turning to `C=CCN1CC[C@]23c4c5ccc(O)c4O[C@H]2C(=O)CC[C@@]3(O)[C@H]1C5` [naloxone], in the data set on tramadol-overdosed rats, the “tramadol-induced respiratory depression / ventilation” value is “reversed tramadol-induced respiratory depression”.

Take `NC[C@H](O)c1ccc(O)c(O)c1` [norepinephrine]: the “OR of maximal dose for mortality” value in data set [6] (95% confidence interval 1.1–2.0, p = 0.02) turned out to be 1.4. The global mortality rate in [6] (191 children with septic shock treated with norepinephrine) worked out at 28.8%. The “mortality rate in preterm neonates” value in data set [6] (in vivo) was 35.3%. Besides, the mortality in [6] (when dose reached 0.75 µg kg per minute) is 46.2%. Moreover, in [7] (H2 to H24), the “arterial pH and lactate” value was “arterial pH increased and lactate level decreased”. For the same compound, in data set [7] (in vivo), the ECMO use is listed as 3%, the “cardiac double product (surrogate of myocardial oxygen consumption)” value is “did not change”, the heart rate evolution result was “did not change” and the incidence of arrhythmia is 33%. Besides, the mortality in [7] (in vivo) was determined as 37%. The “incidence of refractory shock” value in data set [7] (titrated to MAP 70 mmHg, epinephrine n = 27, norepinephrine n = 30) is given as 7%.

Take `CC(O)C(=O)[O-].[Na+]` (stereo not drawn) [sodium lactate]: the diuresis entry in data set [8] (6 h period following initiation, p = 0.02) is “increase”. Also, the mean arterial pressure result in data set [8] (at H6 (p = 0.009) and H24 (p = 0.003), 250 ml infusion, 104 patients) is recorded as “significant increase”. Also, the “pH, bicarbonate, base excess, and sodium” value in [8] (at H6 and H24, all p < 0.0001) is listed as “increase”. Moreover, the “patients with plasma sodium >= 150 mmol l and pH >= 7.50” value in [8] (at H24) was determined as 5%. Also, the catecholamine dose entry in data set [8] (at H24, p = 0.002) was “decrease”. In addition, in data set [8] (at H24, p = 0.05), the heart rate entry is “decrease”. For the same compound, the hemodynamics parameters result in data set [9] (after sodium lactate infusion) is reported as “not significantly enhanced”. Further, the “fluid balance, organs wet dry ratio and Evans blue dye extravasation” value in data set [9] (sodium lactate 11.2% 5 mL/kg/h vs 0.9% NaCl, LPS 10 mg/kg, 210 min) is recorded as “not significantly improved”.

With `CN(C)c1cc(NC(=O)CNC(C)(C)C)c(O)c2c1C[C@H]1C[C@H]3[C@H](N(C)C)C(O)=C(C(N)=O)C(=O)[C@@]3(O)C(O)=C1C2=O` [tigecycline], the resistance rate in the data set with Staphylococcus aureus [5] was determined as 15%. Moreover, in data set [4] (colistin excepting with Proteus), the susceptibility was 63%.

On to `CN(C)c1cc(NC(=O)CNC(C)(C)C)c(O)c2c1C[C@H]1C[C@H]3[C@H](N(C)C)C(=O)C(C(N)=O)=C(O)[C@@]3(O)C(=O)C1=C2O` [tygecycline], for which the resistance in the data set with Acinetobacter Baumanii was found to be 100%.

Take `CN[C@H](CC(C)C)C(=O)N[C@H]1C(=O)N[C@@H](CC(N)=O)C(=O)N[C@H]2C(=O)N[C@H]3C(=O)N[C@H](C(=O)N[C@H](C(=O)O)c4cc(O)cc(O)c4-c4cc3ccc4O)[C@H](O)c3ccc(c(Cl)c3)Oc3cc2cc(c3O[C@@H]2O[C@H](CO)[C@@H](O)[C@H](O)[C@H]2O[C@H]2C[C@](C)(N)[C@H](O)[C@H](C)O2)Oc2ccc(cc2Cl)[C@H]1O` [vancomycin]: the resistance entry with Staphylococcus aureus [10] was “without any resistance”; in the data set on Enterococcus faecalis, “no resistance”.

Regarding Amoxicillin clavulanic acid [AMC], under “community-acquired peritonitis”, the efficiency amounted to 77%. Further, for the setting “in vivo”, the “impact when AMC was inadequate” value is “no impact on morbidity and mortality”.

As for Cyclosporine A [CsA], in [11] (D0 and D1, p = ns), the “IL-1, IL-6, IL-8 and TNFα levels versus Control group” value was “did not significantly differ”. For the same compound, the “level of IL 10 at admission versus Control group” value in data set [11] (p < 0.05) is reported as “significantly lower”.

For amoxicillin-clavulanic acid, the “HR for early VAP vs placebo” value in data set [12] (IC 95% [0.315 + 0.946], p = 0.031) is 0.546. Moreover, the “incidence of early VAP (< 7 days)” value in [12] (IV 1 g 200 mg three times a day for 2 days, n = 99) is given as 19.2%. Besides, in [12] (n = 99), the “Day 28 mortality” value was determined as 41.4% and the “late VAP (> 7 days), number of patients” value stood at 4.

For the compound buprenorphine, in [13], the “diaphragm contraction (first 60 min AUC)” value is on record as “significantly increased” and the “diaphragm workload (first 60 min AUC)” value is “significantly increased”.

In the case of sevelamer, in data set [14] (sevelamer 6 weeks before LPS), the “RNA expression of FXR in the kidney versus CKD LPS group” value is “increased the RNA expression of FXR” and the “plasmatic concentration of Il1b, TNFa versus CKD LPS group” value is “lower plasmatic concentration”. Moreover, the “survival of CKD LPS animals” value in [14] (sevelamer 6 weeks before LPS 0.5 mg kg) is on record as “improved the survival”.

These data come from PMC5799093, “Proceedings of Réanimation 2018, the French Intensive Care Society International Congress” (Annals of Intensive Care, 2018).
